Patent EP3722296B1, “DIHYDRONAPHTHYRIDINES AND RELATED COMPOUNDS USEFUL AS KINASE INHIBITORS FOR THE TREATMENT OF PROLIFERATIVE DISEASES” (Deciphera Pharmaceuticals, LLC, priority 2012, dated 2013)

Experiments:
Assay type in all cases: biochemical
[1] = target: T1, c-KIT D816V kinase (Homo sapiens, UniProt P10721, D816V); assay: c-KIT D816V kinase Assay; settings: enzymatic assay, ATP 200 uM
T1 construct: residues T544-V976 with N-terminal GST fusion; purchased deCODE Biostructures
Protocol: (§1) In this assay, the oxidation of NADH (measured by decrease in absorbance at 340 nm) was continuously monitored spectrophotometrically. […] The inhibition reaction was started by mixing serial diluted test compound with the above reaction mixture. The absorption at 340 nm was monitored continuously for 5 hours at 30 °C on Synergy 2 plate reader (BioTech).
(§2) The protein construct was prepared by deCODE Biostructures using procedures known in the art. The construct contains residues T544-V976 of cKit, an N-terminal tag, a GST-fusion sequence and a TEV cleavage site. This construct is identical to Seq ID no.

[2] = target: T2, c-KIT T670I kinase (Homo sapiens, UniProt P10721, T670I); assay: c-KIT T670I kinase assay; settings: enzymatic assay
T2 construct: The construct contains residues T544-V976 of cKit; GST (N); TEV cleavage site (internal); purchased deCODE Biostructures
Protocol: (§3) In this assay, the oxidation of NADH (measured by decrease in absorbance at 340 nm) was continuously monitored spectrophotometrically. […] The inhibition reaction was started by mixing serial diluted test compound with the above reaction mixture. The absorption at 340 nm was monitored continuously for 5 hours at 30 °C on Synergy 2 plate reader (BioTech). […] The protein construct was prepared by deCODE Biostructures using procedures known in the art. The construct contains […] of cKit, an N-terminal tag, a GST-fusion sequence and a TEV cleavage site. This construct is identical to Seq ID no. 1 except for the T670I mutation. [formula] [formula]

[3] = target: c-KIT kinase (Homo sapiens, UniProt P10721); assay: c-KIT kinase Assay; set-up: cKIT residues T544-V976; GST (N); TEV cleavage site (internal); purchased deCODE Biostructures; settings: enzymatic assay, ATP 200 µM; read-out: KIT (wt) IC50
Protocol: In this assay, the oxidation of NADH (measured by decrease in absorbance at 340 nm) was continuously monitored spectrophotometrically. […] The absorption at 340 nm was monitored continuously for 2 hours at 30 °C on Synergy 2 (BioTeK). The reaction rate was calculated using the 0 to 1 h time frame. Percent inhibition was obtained by comparison of reaction rate with that of a control (i.e. with no test compound). IC50 values were calculated from a series of percent inhibition values determined at a range of inhibitor concentrations using software routines as implemented in the GraphPad Prism software package. The protein construct was prepared by deCODE Biostructures using procedures known in the art. The construct contains […] of cKit, an N-terminal tag, a GST-fusion sequence and a TEV cleavage site. [formula]

[4] = target: T3, c-KIT D816H kinase (Homo sapiens, UniProt P10721, D816H); assay: c-KIT D816H Kinase Assay; settings: enzymatic assay, ATP 200 µM
T3 construct: The construct contains residues T544-V976 of cKit; GST (N); TEV cleavage site (internal); purchased deCODE Biostructures
Protocol: as §3, with “6” for “5”, “no.” for “no. 1 except for the T670I mutation. [formula] [formula]”

[5] = target: T4, c-KIT V654A kinase (Homo sapiens, UniProt P10721, V654A); assay: c-KIT V654A Kinase Assay; settings: enzymatic assay, ATP 200 µM
T4 construct: residues T544-V976 with N-terminal GST fusion; purchased deCODE Biostructures
Protocol: as §1, with “6” for “5”
as §2

Sequence of c-KIT kinase (P10721 544-976): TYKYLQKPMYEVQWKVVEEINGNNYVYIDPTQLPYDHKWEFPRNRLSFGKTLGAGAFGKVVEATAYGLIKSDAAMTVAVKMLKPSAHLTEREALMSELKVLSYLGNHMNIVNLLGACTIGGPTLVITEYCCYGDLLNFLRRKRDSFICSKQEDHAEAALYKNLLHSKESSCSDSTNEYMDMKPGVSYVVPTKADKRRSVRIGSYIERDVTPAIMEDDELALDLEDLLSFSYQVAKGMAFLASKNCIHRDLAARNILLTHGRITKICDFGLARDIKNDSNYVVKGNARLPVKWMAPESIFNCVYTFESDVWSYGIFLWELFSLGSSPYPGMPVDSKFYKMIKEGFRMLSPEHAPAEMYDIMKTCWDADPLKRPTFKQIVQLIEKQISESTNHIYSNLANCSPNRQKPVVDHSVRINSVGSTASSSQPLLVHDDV
T2 sequence (P10721 544-976 T670I): as the sequence (P10721 544-976) above, with T127I counted along it
T1 sequence (P10721 544-976 D816V): as the sequence (P10721 544-976) above, with D273V counted along it
T4 sequence (P10721 544-976 V654A): as the sequence (P10721 544-976) above, with V111A counted along it
T3 sequence (P10721 544-976 D816H): as the sequence (P10721 544-976) above, with D273H counted along it

In the case of `CNc1cc2c(cn1)cc(-c1cc(NC(=O)Nc3cccc(C#N)c3)ccc1Cl)c(=O)n2C` [Example 11, 1-(4-chloro-3-(1-methyl-7-(methylamino)-2-oxo-1,2-dihydro-1,6-naphthyridin-3-yl)phenyl)-3-(3-cyanophenyl)urea], the IC50 [1] is reported as over 1000 nM.

For `CCn1c(=O)c(-c2cc(NC(=O)Nc3ccccc3)c(F)cc2Cl)cc2cnc(NCCN(C)C)cc21` [Example 29, 1-(4-chloro-5-(7-(2-(dimethylamino)ethylamino)-1-ethyl-2-oxo-1,2-dihydro-1,6-naphthyridin-3-yl)-2-fluorophenyl)-3-phenylurea], the IC50 [2] was 100 to 1000 nM, the IC50 [3] was 10 to 100 nM and the IC50 [1] was 100 to 1000 nM.

Work on `CCn1c(=O)c(-c2cc(NC(=O)Nc3ccc(F)cc3)c(F)cc2Cl)cc2cnc(NCCOC)cc21` [Example 34, 1-(4-chloro-5-(1-ethyl-7-(2-methoxyethylamino)-2-oxo-1,2-dihydro-1,6-naphthyridin-3-yl)-2-fluorophenyl)-3-(4-fluorophenyl)urea] yielded an IC50 [4] of 10 to 100 nM, an IC50 [2] of 10 to 100 nM and an IC50 [3] of under 10 nM. For the same molecule, the IC50 [1] was 10 to 100 nM and the IC50 [5] was 10 to 100 nM.

For `CCn1c(=O)c(-c2cc(NC(=O)Nc3ccccc3)c(F)cc2Cl)cc2cnc(N[C@@H](C)COC)cc21` [Example 43, (S)-1-(4-chloro-5-(1-ethyl-7-(1-methoxypropan-2-ylamino)-2-oxo-1,2-dihydro-1,6-naphthyridin-3-yl)-2-fluorophenyl)-3-phenylurea], the IC50 [2] was 100 to 1000 nM, the IC50 [3] was 10 to 100 nM and the IC50 [1] was 100 to 1000 nM.

Work on `CNc1cc2c(cn1)cc(-c1cc(NC(=O)Nc3ccccc3)c(F)cc1Br)c(=O)n2C` [Example 56, 1-(4-bromo-2-fluoro-5-(1-methyl-7-(methylamino)-2-oxo-1,2-dihydro-1,6-naphthyridin-3-yl)phenyl)-3-phenylurea] yielded an IC50 [2] of 100 to 1000 nM, an IC50 [3] of under 10 nM and an IC50 [1] of 10 to 100 nM.

In the case of `CCn1c(=O)c(-c2cc(NC(=O)Nc3cc(F)ccc3F)c(F)cc2F)cc2cnc(NC)cc21` [Example 62, 1-(2,5-difluorophenyl)-3-(5-(1-ethyl-7-(methylamino)-2-oxo-1,2-dihydro-1,6-naphthyridin-3-yl)-2,4-difluorophenyl)urea], the IC50 [2] is reported as under 10 nM, the IC50 [3] is reported as under 10 nM and the IC50 [1] is reported as 100 to 1000 nM.

With `CCn1c(=O)c(-c2cc(NC(=O)Nc3ccccc3)c(F)cc2Br)cc2cnc(NC(=O)CC#N)cc21` [Example 64, N-(3-(2-bromo-4-fluoro-5-(3-phenylureido)phenyl)-1-ethyl-2-oxo-1,2-dihydro-1,6-naphthyridin-7-yl)-2-cyanoacetamide] the IC50 [2] was 100 to 1000 nM, the IC50 [3] was 10 to 100 nM and the IC50 [1] was 100 to 1000 nM.

For `CCn1c(=O)c(-c2cc(NC(=O)Nc3ccccc3)c(F)cc2Cl)cc2cnc(NC(=O)CC#N)cc21` [Example 65, N-(3-(2-chloro-4-fluoro-5-(3-phenylureido)phenyl)-1-ethyl-2-oxo-1,2-dihydro-1,6-naphthyridin-7-yl)-2-cyanoacetamide], the IC50 [2] was 10 to 100 nM, the IC50 [3] was under 10 nM and the IC50 [1] was 10 to 100 nM.

In the case of `CCn1c(=O)c(-c2cc(NC(=O)Nc3cc(F)cc(Cl)c3)c(F)cc2C)cc2cnc(NC)cc21` [Example 69, 1-(3-chloro-5-fluorophenyl)-3-(5-(1-ethyl-7-(methylamino)-2-oxo-1,2-dihydro-1,6-naphthyridin-3-yl)-2-fluoro-4-methylphenyl)urea], the IC50 [2] is reported as 10 to 100 nM, the IC50 [3] is reported as 10 to 100 nM and the IC50 [1] is reported as 100 to 1000 nM. For the same molecule, the IC50 [5] was 10 to 100 nM.

Work on `CCn1c(=O)c(-c2cc(NC(=O)Nc3cc(F)cc(Cl)c3)c(F)cc2Cl)cc2cnc(NC)cc21` [Example 71, 1-(4-chloro-5-(1-ethyl-7-(methylamino)-2-oxo-1,2-dihydro-1,6-naphthyridin-3-yl)-2-fluorophenyl)-3-(3-chloro-5-fluorophenyl)urea] yielded an IC50 [2] of 10 to 100 nM, an IC50 [3] of 10 to 100 nM and an IC50 [1] of 100 to 1000 nM. It also gave an IC50 [5] of 10 to 100 nM.

Work on `CCn1c(=O)c(-c2cc(NC(=O)Nc3cc(C)cc(F)c3)c(F)cc2Cl)cc2cnc(NC)cc21` [Example 72, 1-(4-chloro-5-(1-ethyl-7-(methylamino)-2-oxo-1,2-dihydro-1,6-naphthyridin-3-yl)-2-fluorophenyl)-3-(3-fluoro-5-methylphenyl)urea] yielded an IC50 [2] of under 10 nM, an IC50 [3] of under 10 nM and an IC50 [1] of 10 to 100 nM. It also gave an IC50 [5] of 100 to 1000 nM.

In the case of `CCn1c(=O)c(-c2cc(NC(=O)Nc3ccccc3)c(F)cc2Cl)cc2cnc(NC(=O)COC)cc21` [Example 74, N-(3-(2-chloro-4-fluoro-5-(3-phenylureido)phenyl)-1-ethyl-2-oxo-1,2-dihydro-1,6-naphthyridin-7-yl)-2-methoxyacetamide], the IC50 [2] is reported as 10 to 100 nM, the IC50 [3] is reported as under 10 nM and the IC50 [1] is reported as under 10 nM.

In the case of `CCn1c(=O)c(-c2cc(NC(=O)Nc3cccc(F)c3)c(F)cc2C)cc2cnc(NC(C)=O)cc21` [Example 78, N-(1-ethyl-3-(4-fluoro-5-(3-(3-fluorophenyl)ureido)-2-methylphenyl)-2-oxo-1,2-dihydro-1,6-naphthyridin-7-yl)acetamide], the IC50 [2] is reported as 10 to 100 nM, the IC50 [3] is reported as under 10 nM and the IC50 [1] is reported as 10 to 100 nM.

Work on `CCn1c(=O)c(-c2cc(NC(=O)Nc3ccccc3)c(F)cc2C)cc2cnc(NC(C)=O)cc21` [Example 80, N-(1-ethyl-3-(4-fluoro-2-methyl-5-(3-phenylureido)phenyl)-2-oxo-1,2-dihydro-1,6-naphthyridin-7-yl)acetamide] yielded an IC50 [4] of under 10 nM, an IC50 [2] of 10 to 100 nM and an IC50 [3] of under 10 nM. It also gave an IC50 [1] of 10 to 100 nM.

Molecule `CCn1c(=O)c(-c2cc(NC(=O)Nc3cccc(CN4CCN(C)CC4)c3)c(F)cc2C)cc2cnc(NC)cc21` [Example 82, 1-(5-(1-ethyl-7-(methylamino)-2-oxo-1,2-dihydro-1,6-naphthyridin-3-yl)-2-fluoro-4-methylphenyl)-3-(3-((4-methylpiperazin-1-yl)methyl)phenyl)urea] has an IC50 [2] of 100 to 1000 nM, an IC50 [3] of 10 to 100 nM and an IC50 [1] of 100 to 1000 nM.

`CCn1c(=O)c(-c2cc(NC(=O)Nc3cccc(CN4CCN(C)CC4)c3)c(F)cc2Br)cc2cnc(NC)cc21` [Example 83, 1-(4-bromo-5-(1-ethyl-7-(methylamino)-2-oxo-1,2-dihydro-1,6-naphthyridin-3-yl)-2-fluorophenyl)-3-(3-((4-methylpiperazin-1-yl)methyl)phenyl)urea] was tested, and the IC50 [2] was 100 to 1000 nM, the IC50 [3] was under 10 nM and the IC50 [1] was 100 to 1000 nM.

In the case of `CCn1c(=O)c(-c2cc(NC(=O)Nc3ccc(F)c(CN4CCN(C)CC4)c3)c(F)cc2F)cc2cnc(NC)cc21` [Example 90, 1-(5-(1-ethyl-7-(methylamino)-2-oxo-1,2-dihydro-1,6-naphthyridin-3-yl)-2,4-difluorophenyl)-3-(4-fluoro-3-((4-methylpiperazin-1-yl)methyl)phenyl)urea], the IC50 [4] is reported as 10 to 100 nM, the IC50 [2] is reported as 10 to 100 nM and the IC50 [3] is reported as under 10 nM. It also gave an IC50 [1] of over 1000 nM.

In the case of `CCn1c(=O)c(-c2cc(NC(=O)Nc3ccccc3)c(F)cc2F)cc2cnc(NC(=O)N(C)C)cc21` [Example 112, 3-(3-(2,4-difluoro-5-(3-phenylureido)phenyl)-1-ethyl-2-oxo-1,2-dihydro-1,6-naphthyridin-7-yl)-1,1-dimethylurea], the IC50 [4] is reported as under 10 nM, the IC50 [2] is reported as under 10 nM and the IC50 [3] is reported as under 10 nM. It also gave an IC50 [1] of 10 to 100 nM.

Work on `CCn1c(=O)c(-c2cc(NC(=O)Nc3ccccc3)c(F)cc2I)cc2cnc(NC)cc21` [Example 114, 1-(5-(1-ethyl-7-(methylamino)-2-oxo-1,2-dihydro-1,6-naphthyridin-3-yl)-2-fluoro-4-iodophenyl)-3-phenylurea] yielded an IC50 [2] of over 1000 nM, an IC50 [3] of 10 to 100 nM and an IC50 [1] of 100 to 1000 nM.
